How the values were obtained:
Type in all cases: in vivo, Balb/c female mice
[1] = Body weight in asthma-induced mice; details: homoegonol study
Experimental: (§1) To prepare bronchial asthma-induced experimental animals, six-week-old Balb/c female mice of mean weight about 20 g were used. After one week of adaptation, individuals which had no observed abnormality on a basic physical examination were targeted. 200 μL of phosphate buffered saline (PBS)(pH 7.4) in which 2 mg of aluminum hydroxide (A8222, Sigma, St. Louis, Mo.) and 20 μg of ovalbumin (A5503, Sigma, St. Louis, Mo.) were suspended was injected into the peritoneal cavity at two-week intervals to result in sensitization. On days 28 to 30 after the first intraperitoneal administration of ovalbumin, inhalation challenge was performed for 30 min with 1% ovalbumin using an ultrasonic atomizer. 24 hours after the last antigen administration, airway hyperresponsiveness was measured. After 24 hours, a lethal dose of pentobarbital (Entobar®, Hanlim Pharm Co., Ltd.) was administered, body weight measurement and bronchotomy were performed, and bronchoalveolar lavage was performed with a total 1.2 mL of physiological saline, and then, samples were collected. […] Eight white mice were used for each group. Experimental groups for homoegonol were a group (hE7.5) in which animals were orally administered with 7.5 mg/kg homoegonol 1 hour prior to ovalbumin inhalation, a group (hE15) in which animals were orally administered with 15 mg/kg homoegonol 1 hour prior to ovalbumin inhalation, and a group (hE30) in which animals were orally administered with 30 mg/kg homoegonol 1 hour prior to ovalbumin inhalation, and five white mice were used for each group.
(§2) To determine an effect of styraxlignolide A on reduction in body weight in asthma-induced mice, body weight of each mouse prepared in Example 2 was measured. For statistical analyses for all measurements, means and standard errors (mean±S.E.) according to a number of variables were calculated, and comparison between each group was analyzed by performing a Mann-whitney U test using SPSS 10.0. Statically significance was accepted at p<0.05.
as §2, with “homoegonol” for “styraxlignolide A”

[2] = tested on: inflammatory cells in bronchoalveolar lavage fluid; test: Inflammatory cell counts in bronchoalveolar lavage fluid (Diff-Quick staining); details: asthma-induced mice, homoegonol study, bronchoalveolar lavage fluid
Experimental: as §1
Bronchoalveolar lavage fluid was collected from individuals of each experimental group in <Example 2> and right after the collection, fluid was stained with trypan blue. The number of total cells except dead cells was calculated using a hemocytometer. Then, Diff-Quick staining (Sysmex, Swizerland) was performed after smear preparation with Cytospin II, and eosinophils and other inflammatory cells were differentially counted.
To examine the effect of homoegonol on asthma, variation in the numbers of asthma-related inflammatory cells was measured according to the method in <Experimental Example 3>.

[3] = tested on: inflammatory cells in the airway mucosa; test: Inflammatory cell infiltration in airway mucosa, inflammatory index (H&E staining); details: asthma-induced mice, homoegonol study, scale 0-4
Experimental: as §1
Lungs removed from each individual were subjected to conventional formalin fixation and paraffin embedding, and permanent section slides of 4 μm thickness were prepared, and hematoxylin and eosin (H&E) staining was performed. After H&E staining, inflammatory index was measured from random five regions per section slide of each individual to calculate the mean value. Assessments were as follows: inflammatory index 0 is for the case that inflammatory cells are not observed around the bronchus; inflammatory index 1 is for the case that inflammatory cells are intermittently observed; inflammatory index 2 is for the case that thin inflammatory cell layers of one to two or three layers are observed around most of the bronchus; inflammatory index 3 is for the case that inflammatory cell layers of two or three to five or less layers are observed around most of the bronchus; and inflammatory index 4 is for the case that thick inflammatory cell layers of five or more layers are observed around most of the bronchus.
To examine the effect of homoegonol on asthma, lungs of which bronchoalveolar lavage was not performed were removed, and histopathological assessment was performed according to the method in <Experimental Example 7-1>. Since infiltration of inflammatory cells which are comprised of eosinophils, neutrophils, and macrophages are observed in an antigen-aroused bronchus, the present inventors tried to detect inflammatory cell infiltration.

[4] = tested on: fibrosis in subsegmental bronchi; test: Fibrosis in subsegmental bronchi (Masson's trichrome staining); details: asthma-induced mice, homoegonol study; 30 mg/kg PO
Experimental: as §1

IL-17 = IL-17 in bronchoalveolar lavage fluid; details: asthma-induced mice, homoegonol study
Experimental: as §1
To examine the effect of homoegonol on airway remodeling, generation of TGF-β1 and IL-17 in bronchoalveolar lavage fluid was measured.

COc1ccc(-c2cc3cc(CCCO)cc(OC)c3o2)cc1OC [homoegonol]
body weight ([1]; 7.5 mg/kg PO 1 hour prior to ovalbumin inhalation): 22.10 ± 0.13 g | body weight ([1]; 15 mg/kg PO 1 hour prior to ovalbumin inhalation): 21.23 ± 0.43 g | body weight ([1]; 30 mg/kg PO 1 hour prior to ovalbumin inhalation): 21.98 ± 0.47 g | Number of cells, Other inflammatory cells ([2]; 7.5 mg/kg PO): 33.40 ± 2.3467 ×10^3 cells/mouse | Number of cells, Eosinophils ([2]; 7.5 mg/kg PO, 7.5 mg/kg): 12.80±2.50 ×10^3 cells/mouse | Number of cells, Total inflammatory cells ([2]; 7.5 mg/kg PO, 7.5 mg/kg): 42.80±7.2060 ×10^3 cells/mouse | Number of cells, Other inflammatory cells ([2]; 15 mg/kg PO): 30.00 ± 2.8267 ×10^3 cells/mouse | Number of cells, Eosinophils ([2]; 15 mg/kg PO, 15 mg/kg): 6.32±0.86 ×10^3 cells/mouse | Number of cells, Total inflammatory cells ([2]; 15 mg/kg PO, 15 mg/kg): 39.72±4.4400 ×10^3 cells/mouse | Number of cells, Other inflammatory cells ([2]; 30 mg/kg PO): 28.4 ± 3.1739 ×10^3 cells/mouse | Number of cells, Eosinophils ([2]; 30 mg/kg PO, 30 mg/kg): 5.48±2.02 ×10^3 cells/mouse | Number of cells, Total inflammatory cells ([2]; 30 mg/kg PO, 30 mg/kg): 33.88±8.1589 ×10^3 cells/mouse | Inflammatory index, peribronchiolar ([3]; 7.5 mg/kg PO, 7.5 mg/kg): 1.67±0.1491 | Inflammatory index, perivascular ([3]; 7.5 mg/kg PO, 7.5 mg/kg): 1.89±0.1791 | Inflammatory index, peribronchiolar ([3]; 15 mg/kg PO, 15 mg/kg): 1.40±0.1549 | Inflammatory index, perivascular ([3]; 15 mg/kg PO, 15 mg/kg): 1.70±0.1449 | Inflammatory index, peribronchiolar ([3]; 30 mg/kg PO, 30 mg/kg): 1.00±0.2449 | Inflammatory index, perivascular ([3]; 30 mg/kg PO, 30 mg/kg): 1.30±0.2025 | area of a fibrosis stained region per 100 μm of a basement membrane perimeter [4]: 320.99 ± 46.2236 μm^2/100 μm of basement membrane | IL-17 concentrations in bronchoalveolar lavage fluid (IL-17; 7.5 mg/kg PO): 70.3409 ± 14.2912 pg/mL | IL-17 concentrations in bronchoalveolar lavage fluid (IL-17; 15 mg/kg PO): 43.5682 ± 2.9102 pg/mL | IL-17 concentrations in bronchoalveolar lavage fluid (IL-17; 30 mg/kg PO): 27.3863 ± 5.7881 pg/mL

Reference: US8980846B2, “Composition containing styraxlignolide A or the aglycone thereof as an active ingredient for preventing or treating asthma” (Korea Research Institute of Bioscience and Biotechnology, priority 2010, dated 2015)
